Values after ≈ are worked out from the molar mass of the structure shown.

One assay has as its system SK-MEL-2. As to the kind of experiment: Cytotoxicity in SK-MEL-2 (human melanoma) cell line. The format is functional. As to conditions: read-out: ED50 (the source's name).
In a further assay the test system is A549. The assay can be described thus: Cytotoxicity in A549 (human carcinoma) cell line. The format is functional. Conditions: read-out: ED50 (the source's name).
A further assay concerns the target Tubulin. As to the kind of experiment: Inhibition of tubulin polymerization in S180 (murine sarcoma) cells. In kind it is functional, cell-based. Conditions: ccrf s-180.
The nature of assay [1]: Inhibition of DNA topoisomerase II in S180 (murine sarcoma) cells. In kind it is functional, cell-based, Mus musculus. As to conditions: ccrf s-180.
In the next assay the test system is CCRF S-180. As to the kind of experiment: Cytotoxicity in S-180 (murine sarcoma) cell was determined. The format is functional, cell-based. Conditions: Mus musculus.

For `CCCCCC/C=C/CCCCCCCCCC(=O)Oc1c(OC)cc([C@@H]2c3cc4c(cc3C[C@H]3COC(=O)[C@@H]32)OCO4)cc1OC`, the results for the EC50 in the assay with SK-MEL-2 and in the assay on A549 were 0.253 µg/mL (≈ 0.39 µM) and 1.01 µg/mL (≈ 1.56 µM), respectively.

`CCCC/C=C\C/C=C\CCCCCCCCCC(=O)Oc1c(OC)cc([C@@H]2c3cc4c(cc3C[C@H]3COC(=O)[C@@H]32)OCO4)cc1OC`: the EC50 was 0.347 µg/mL (≈ 0.525 µM) in the assay with SK-MEL-2 and 0.87 µg/mL (≈ 1.32 µM) with A549.

As for `CCCCC/C=C\C/C=C\C/C=C\CCCCC(=O)Oc1c(OC)cc([C@@H]2c3cc4c(cc3C[C@H]3COC(=O)[C@@H]32)OCO4)cc1OC`, the figures for the EC50 with SK-MEL-2 and with A549 were 0.041 µg/mL (≈ 0.0636 µM) and 0.085 µg/mL (≈ 0.132 µM), respectively.

For the compound `CCCCCC/C=C\CCCCCCCC(=O)Oc1c(OC)cc([C@@H]2c3cc4c(cc3C[C@H]3COC(=O)[C@@H]32)OCO4)cc1OC`, the EC50 with SK-MEL-2 came to 0.065 µg/mL (≈ 0.105 µM); with A549 it was 0.733 µg/mL (≈ 1.18 µM).

Regarding `CCCCCCCCCCCCCCCCCC(=O)Oc1c(OC)cc([C@@H]2c3cc4c(cc3C[C@H]3COC(=O)[C@@H]32)OCO4)cc1OC`, the EC50 with SK-MEL-2 was more than 5 µg/mL; with A549, 2.67 µg/mL (≈ 4.1 µM).

Take `CCCCCCCCCCCCCCCCCCCCCC(=O)Oc1c(OC)cc([C@@H]2c3cc4c(cc3C[C@H]3COC(=O)[C@@H]32)OCO4)cc1OC`: the EC50 with SK-MEL-2 and in the assay on A549 was more than 5 µg/mL each time.

As to `COc1cc([C@@H]2c3cc4c(cc3C[C@H]3COC(=O)[C@@H]32)OCO4)cc(OC)c1OC` [DESOXYPODOPHYLLOTOXIN], the EC50 in the assay with SK-MEL-2 came out at 0.009 µg/mL (≈ 0.0226 µM); in the assay with A549, 0.012 µg/mL (≈ 0.0301 µM).

With `CCCCCCCCCCCCCCCC(=O)Oc1c(OC)cc([C@@H]2c3cc4c(cc3C[C@H]3COC(=O)[C@@H]32)OCO4)cc1OC`, the EC50 was 0.29 µg/mL (≈ 0.466 µM) in the assay on SK-MEL-2 and 0.268 µg/mL (≈ 0.43 µM) with A549.

With `CC/C=C\C/C=C\C/C=C\CCCCCCCC(=O)Oc1c(OC)cc([C@@H]2c3cc4c(cc3C[C@H]3COC(=O)[C@@H]32)OCO4)cc1OC`, the EC50 amounted to 0.048 µg/mL (≈ 0.0744 µM) with SK-MEL-2 and 0.084 µg/mL (≈ 0.13 µM) in the assay on A549.

As to `CCCCCCCC/C=C\CCCCCCCCCC(=O)Oc1c(OC)cc([C@@H]2c3cc4c(cc3C[C@H]3COC(=O)[C@@H]32)OCO4)cc1OC`, the EC50 with SK-MEL-2 and in the assay on A549 was more than 5 µg/mL in each case.

For the compound `CCCCCC/C=C\CCCCCCCCCC(=O)Oc1c(OC)cc([C@@H]2c3cc4c(cc3C[C@H]3COC(=O)[C@@H]32)OCO4)cc1OC`, the EC50 is 0.057 µg/mL (≈ 0.0878 µM) with SK-MEL-2 and 0.335 µg/mL (≈ 0.516 µM) in the assay with A549.

With `CCCCCCCC/C=C/CCCCCCCC(=O)Oc1c(OC)cc([C@@H]2c3cc4c(cc3C[C@H]3COC(=O)[C@@H]32)OCO4)cc1OC`, the EC50 in the assay on SK-MEL-2 stood at 0.55 µg/mL (≈ 0.848 µM); in the assay on A549, 0.367 µg/mL (≈ 0.566 µM).

For the compound `CC/C=C\C/C=C\C/C=C\C/C=C\C/C=C\C/C=C\CCC(=O)Oc1c(OC)cc([C@@H]2c3cc4c(cc3C[C@H]3COC(=O)[C@@H]32)OCO4)cc1OC`, the EC50 in the assay with SK-MEL-2 worked out at 0.035 µg/mL (≈ 0.0504 µM); in the assay on A549, 0.119 µg/mL (≈ 0.171 µM).

Take `CCCCC/C=C\C/C=C\CCCCCCCC(=O)Oc1c(OC)cc([C@@H]2c3cc4c(cc3C[C@H]3COC(=O)[C@@H]32)OCO4)cc1OC`: the EC50 in the assay on SK-MEL-2 was found to be 0.03 µg/mL (≈ 0.0464 µM); with A549, 0.09 µg/mL (≈ 0.139 µM).

Turning to `CCCCCCCCCCCCCCCCCCCC(=O)Oc1c(OC)cc([C@@H]2c3cc4c(cc3C[C@H]3COC(=O)[C@@H]32)OCO4)cc1OC`, the EC50 with SK-MEL-2 and in the assay on A549 was more than 5 µg/mL in each case.

The term IC50 denotes the concentration that inhibits the measured activity by half. Higher therefore signals lower potency. Turning to `COc1cc([C@@H]2c3cc4c(cc3C[C@H]3COC(=O)[C@@H]32)OCO4)cc(OC)c1O` [4'-DEMETHYLDEOXYPODOPHYLLOTOXIN], the IC50 was found to be 2 µM against Tubulin, 24.5 µM in assay [1] and 0.03 µM with CCRF S-180. Moreover, the EC50 with SK-MEL-2 turned out to be 0.015 µg/mL (≈ 0.039 µM); in the assay on A549, 0.023 µg/mL (≈ 0.0598 µM).

In the case of `CCCCCCCC/C=C\CCCCCCCCCCCC(=O)Oc1c(OC)cc([C@@H]2c3cc4c(cc3C[C@H]3COC(=O)[C@@H]32)OCO4)cc1OC`, the EC50 in the assay with SK-MEL-2 came to 0.561 µg/mL (≈ 0.796 µM); in the assay on A549 it was 2.71 µg/mL (≈ 3.84 µM).

In the case of `CCCC/C=C\C/C=C\C/C=C\C/C=C\CCCC(=O)Oc1c(OC)cc([C@@H]2c3cc4c(cc3C[C@H]3COC(=O)[C@@H]32)OCO4)cc1OC`, the EC50 was 0.184 µg/mL (≈ 0.28 µM) with SK-MEL-2 and 0.91 µg/mL (≈ 1.39 µM) with A549.

As for `CCCCCCCC/C=C\CCCCCCCC(=O)Oc1c(OC)cc([C@@H]2c3cc4c(cc3C[C@H]3COC(=O)[C@@H]32)OCO4)cc1OC`, the figures for the EC50 with SK-MEL-2 and with A549 were 0.159 µg/mL (≈ 0.245 µM) and 0.179 µg/mL (≈ 0.276 µM), respectively.

For `CCCCC/C=C/C/C=C/CCCCCCCC(=O)Oc1c(OC)cc([C@@H]2c3cc4c(cc3C[C@H]3COC(=O)[C@@H]32)OCO4)cc1OC`, the EC50 in the assay on SK-MEL-2 was 0.11 µg/mL (≈ 0.17 µM); in the assay with A549, 0.259 µg/mL (≈ 0.4 µM).

For the compound `CCCCCCC/C=C/CCCCCCCCCC(=O)Oc1c(OC)cc([C@@H]2c3cc4c(cc3C[C@H]3COC(=O)[C@@H]32)OCO4)cc1OC`, the values for the EC50 in the assay with SK-MEL-2 and with A549 were 1.13 µg/mL (≈ 1.7 µM) and 1.66 µg/mL (≈ 2.5 µM), respectively.

The values above are taken from ChEMBL document CHEMBL1136145, “Antitumor activity of unsaturated fatty acid esters of 4'-demethyldeoxypodophyllotoxin” (Bioorg Med Chem Lett, 2003).
